Our source for the IC50 values is patent US6632829B2, “Sulfonamides and derivatives thereof that modulate the activity of endothelin” (Texas Biotechnology Corp., priority 1996, dated 2003).

“And” between values parts separate entries of the source, which are not always exact repeats. Equal values may be shown once. Where a name gives a salt, the structure may show the parent alone. A value given as a limit tells only on which side of the number the result lay.

The term IC50 denotes the point on the concentration scale where inhibition reaches its midpoint. High values mean weaker potency, low ones greater potency.

The first test addresses T1, human ETA receptors (Homo sapiens, UniProt P25101).
T1 construct: endogenous in cells; host or cells: TE 671 cells (ATCC HTB 139), membrane preparation
T1 sequence (P25101 21-427): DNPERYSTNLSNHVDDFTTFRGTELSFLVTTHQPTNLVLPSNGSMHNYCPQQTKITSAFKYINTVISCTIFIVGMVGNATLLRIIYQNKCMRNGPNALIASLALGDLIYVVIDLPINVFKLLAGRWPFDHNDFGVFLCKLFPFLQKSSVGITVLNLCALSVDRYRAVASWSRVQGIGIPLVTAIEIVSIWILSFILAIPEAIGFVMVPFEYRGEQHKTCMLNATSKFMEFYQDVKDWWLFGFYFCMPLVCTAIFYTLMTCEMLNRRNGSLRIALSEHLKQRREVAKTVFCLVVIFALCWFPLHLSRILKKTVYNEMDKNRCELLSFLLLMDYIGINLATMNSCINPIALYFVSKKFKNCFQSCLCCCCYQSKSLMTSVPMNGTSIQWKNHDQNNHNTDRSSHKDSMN
Kind of test: Endothelin binding inhibition, Binding Test #1: competition with 125I-ET-1 for ETA receptors on TE 671 cell membranes. The conditions noted are these: incubation at 4° C. (values without †). The method, then: (§1) Cells from multiple flasks were collected by scraping, pooled and centrifuged for 10 min at 190×g. The cells were resuspended in phosphate buffered saline (PBS) containing 10 mM EDTA using a Tenbroeck homogenizer. The suspension was centrifuged at 4° C. at 57,800×g for 15 min, the pellet was resuspended in 5 mL of buffer A (5 mM HEPES buffer, pH 7.4 containing aprotinin (100 KIU/mL)) and then frozen and thawed once. 5 mL of Buffer B (5 mM HEPES Buffer, pH 7.4 containing 10 mM MnCl2 and 0.001% deoxyribonuclease Type 1) was added, the suspension mixed by inversion and then incubated at 37° C. for 30 minutes. The mixture was centrifuged at 57,800×g as described above, the pellet washed twice with buffer A and then resuspended in buffer C (30 mM HEPES buffer, pH 7.4 containing aprotinin (100 KIU/mL) to give a final protein concentration of 2 mg/mL and stored at −70° C. until use.
The membrane suspension (50 μL), containing up to 8 μg of membrane protein, was added to each of (A), (B), or (C). […] Alternatively, the incubation was conducted at 24° C.
The supernatant, containing unbound radioactivity, was decanted and the pellet counted on a Genesys multiwell gamma counter. The degree of inhibition of binding (D) was calculated according to the following equation: [formula]
Each test was generally performed in triplicate.
In turn, `CCCCc1ccc(-c2ccsc2S(=O)(=O)Nc2onc(C)c2Br)cc1` [N-(4-bromo-3-methyl-5-isoxazolyl)-3-(4-butylphenyl)thiophene-2-sulfonamide] displayed a concentration for half-maximal inhibition (IC50) of 160 nM.
Same read-out and setting: the figure for `Cc1noc(NS(=O)(=O)c2c(C)sc3ccccc23)c1C` [N-(3,4-dimethyl-5-isoxazolyl)-2-methylbenzo[b]thiophene-3-sulfonamide] is 167 nM.

Staying with this test, now noted: incubation at 24° C. (values marked †).
Take `Cc1ccc(OC(=O)c2sccc2S(=O)(=O)Nc2onc(C)c2Br)c(C)c1` [N-(4-bromo-3-methyl-5-isoxazolyl)-2-[(2,4-dimethylphenoxy)carbonyl]thiophene-3-sulfonamide]: the concentration for half-maximal inhibition (IC50) turned out to be 291 nM.
Compound `Cc1cc(C)c(CC(=O)c2sccc2S(=O)(=O)Nc2onc(C)c2Cl)c(C)c1` [N-(4-chloro-3-methyl-5-isoxazolyl)-2-(2,4,6-trimethylphenylacetyl)thiophene-3-sulfonamide] showed an IC50 of 0.238 nM.
`CC(=O)c1cc2c(cc1NC(=O)c1sccc1S(=O)(=O)Nc1onc(C)c1C)OCO2` [N-(3,4-dimethyl-5-isoxazolyl)-2-{[2-acetyl-4,5-(methylenedioxy)phenyl]aminocarbonyl}thiophene-3-sulfonamide]: the IC50 was determined as 32 nM.
Compound `Cc1ccc(NC(=O)c2sccc2S(=O)(=O)Nc2onc(C)c2Cl)c(O)c1` [N-(4-chloro-3-methyl-5-isoxazolyl)-2-[2-hydroxy-4-methylphenyl)aminocarbonyl]thiophene-3-sulfonamide] registered an IC50 of 6 nM.
Take `Cc1nnc(NC(=O)c2sccc2S(=O)(=O)Nc2onc(C)c2Cl)s1` [N-(4-chloro-3-methyl-5-isoxazolyl)-2-[(2-methyl-1,3,4-thiadiazol-5-yl)aminocarbonyl]thiophene-3-sulfonamide]: the IC50 is 130 nM.
As to `COC(=O)c1cc(OC)c(OC)cc1NC(=O)c1sccc1S(=O)(=O)Nc1onc(C)c1Cl` [N-(4-chloro-3-methyl-5-isoxazolyl)-2-[(4,5-dimethoxy-2-methoxycarbonylphenyl)aminocarbonyl]thiophene-3-sulfonamide], the IC50 was found to be 550 nM. Against the preceding compound, the IC50 is about 4.2-fold higher.
`Cc1noc(NS(=O)(=O)c2ccsc2CCc2ccc3c(c2)OCO3)c1Br` [N-(4-bromo-3-methyl-5-isoxazolyl)-2-[(3,4-methylenedioxy)phenethyl]thiophene-3-sulfonamide] registered an IC50 of 210 nM.
`Cc1noc(NS(=O)(=O)c2ccsc2C(=O)OC2CCOCC2)c1Cl` [N-(4-chloro-3-methyl-5-isoxazolyl)-2-[(4-oxacyclohexyl)oxycarbonyl]thiophene-3-sulfonamide] displayed a 50% inhibitory concentration (IC50) of 1370 nM.
Take `COc1ccc(OC(=O)c2sccc2S(=O)(=O)Nc2onc(C)c2C)cc1` [N-(3,4-dimethyl-5-isoxazolyl)-2-[(4-methoxylphenoxy)carbonyl]thiophene-3-sulfonamide]: the IC50 is 5880 nM and 2500 nM.
Regarding `Cc1noc(NS(=O)(=O)c2ccsc2C(=O)Nc2cc3c(cc2C(=O)O)OCO3)c1Cl` [N-(4-chloro-3-methyl-5-isoxazolyl)2-{[2-carboxyl-4,5-(methylenedioxy)phenyl]aminocarbonyl}thiophene-3-sulfonamide], the IC50 was determined as 1430 nM.
On the same count and under the same terms, the figure for `Cc1cc2c(cc1C(C)C(=O)c1sccc1S(=O)(=O)Nc1onc(C)c1Cl)OCO2` (stereo not drawn) [N-(4-chloro-3-methyl-5-isoxazolyl)-2-(α-methyl-2-methyl-4,5-(methylenedioxy)phenylacetyl)thiophene-3-sulfonamide] is 85.3 nM.
Same read-out and setting: the figure for `COc1cccc(-c2ccsc2S(=O)(=O)Nc2onc(C)c2Br)c1` [N-(4-bromo-3-methyl-5-isoxazolyl)-3-(3-methoxyphenyl)thiophene-2-sulfonamide] is 334 nM; for `Cc1cc2c(cc1C(CC(=O)O)C(=O)c1sccc1S(=O)(=O)Nc1onc(C)c1Cl)OCO2` (stereo not drawn) [N-(4-chloro-3-methyl-5-isoxazolyl)-2-(α-carboxylmethyl-2-methyl-4,5-(methylenedioxy)phenylacetyl)thiophene-3-sulfonamide] it is 81.1 nM.
Turning to `Cc1cc(C)c(NC(=O)c2sccc2S(=O)(=O)Nc2onc(C)c2Cl)c(C)c1CN(C)C` [N-(4-chloro-3-methyl-5-isoxazolyl)-2-(3-dimethylaminomethyl-2,4,6-trimethylphenylaminocarbonyl)thiophene-3-sulfonamide, trifluoroacetic acid salt], the IC50 was found to be 13.4 nM.
On the same count and under the same terms, for `Cc1noc(NS(=O)(=O)c2ccsc2C(N)=O)c1Br` [N-(4-bromo-3-methyl-5-isoxazolyl)-2-(aminocarbonyl)thiophene-3-sulfonamide] the value was 840 nM.

The target in the next test is T2, human ETB receptor (Homo sapiens, UniProt P24530).
T2 construct: expressed in transfected cells; host or cells: COS7 cells
T2 sequence (P24530 27-442): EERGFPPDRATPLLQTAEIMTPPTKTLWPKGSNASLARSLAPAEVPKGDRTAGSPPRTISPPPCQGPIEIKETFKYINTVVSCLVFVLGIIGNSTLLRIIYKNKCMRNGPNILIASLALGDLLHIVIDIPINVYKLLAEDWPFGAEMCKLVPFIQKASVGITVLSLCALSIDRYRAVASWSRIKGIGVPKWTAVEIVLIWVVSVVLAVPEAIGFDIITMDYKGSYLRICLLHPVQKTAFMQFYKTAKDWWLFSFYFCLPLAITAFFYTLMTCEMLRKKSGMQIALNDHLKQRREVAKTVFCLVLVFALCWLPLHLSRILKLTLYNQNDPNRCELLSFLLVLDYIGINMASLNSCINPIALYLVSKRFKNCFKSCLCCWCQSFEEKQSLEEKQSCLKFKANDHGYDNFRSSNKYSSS
Kind of test: Endothelin binding inhibition, Binding Test #2: competition with 125I-ET-1 for ETB receptors on transfected COS7 cell membranes. The following applies: incubation at 4° C. (values without †).
From the text: Compounds that are potential endothelin antagonists are identified by testing their ability to compete with ^125I-labeled ET-1 for binding to human ETA receptors or ETB receptors present on isolated cell membranes. The effectiveness of the test compound as an antagonist or agonist of the biological tissue response of endothelin can also be assessed by measuring the effect on endothelin induced contraction of isolated rat thoracic aortic rings. The ability of the compounds to act as antagonists or agonists for ETB receptors can be assess by testing the ability of the compounds are to inhibit endothelin-1 induced prostacyclin release from cultured bovine aortic endothelial cells.
COS7 cells were transfected with DNA encoding the ETB receptor, The resulting cells, which express the human ETB receptor, were grown to confluence in T-150 flasks. Membrane was prepared as described above. The binding assay was performed as described above using the membrane preparation diluted with binding buffer to a concentration of 1 μg/50 μL.
as §1, with “Briefly, the COS7 cells, described above, that had been transfected with DNA encoding the ETB receptor and express the human ETB receptor on their surfaces were grown to confluence in T-175 flasks. Cells” for “Cells”, “C.” for “C. at”, “once. Five” for “once. 5”, “2 mg/mL.” for “2 mg/mL and stored at −70° C. until use.”
The binding assay was performed as described above using the membrane preparation diluted to give 1 μg/50 μL of binding buffer.
As for `Cc1noc(NS(=O)(=O)c2c(C)sc3ccccc23)c1C` [N-(3,4-dimethyl-5-isoxazolyl)-2-methylbenzo[b]thiophene-3-sulfonamide], the IC50 is 16600 nM.

The test is the same for the next values; noted with them: incubation at 24° C. (values marked †).
Consider `CCCCc1ccc(-c2ccsc2S(=O)(=O)Nc2onc(C)c2Br)cc1` [N-(4-bromo-3-methyl-5-isoxazolyl)-3-(4-butylphenyl)thiophene-2-sulfonamide], for which the half-inhibitory concentration (IC50) was 6110 nM.
`Cc1ccc(OC(=O)c2sccc2S(=O)(=O)Nc2onc(C)c2Br)c(C)c1` [N-(4-bromo-3-methyl-5-isoxazolyl)-2-[(2,4-dimethylphenoxy)carbonyl]thiophene-3-sulfonamide]: the IC50 is 43200 nM.
`Cc1cc(C)c(CC(=O)c2sccc2S(=O)(=O)Nc2onc(C)c2Cl)c(C)c1` [N-(4-chloro-3-methyl-5-isoxazolyl)-2-(2,4,6-trimethylphenylacetyl)thiophene-3-sulfonamide] returned an IC50 of 3820 nM.
As for `CC(=O)c1cc2c(cc1NC(=O)c1sccc1S(=O)(=O)Nc1onc(C)c1Cl)OCO2` [N-(4-chloro-3-methyl-5-isoxazolyl)2-{[2-acetyl-4,5-(methylenedioxy)phenyl]aminocarbonyl}thiophene-3-sulfonamide], the IC50 is 31600 nM.
For `Cc1noc(NS(=O)(=O)c2ccsc2COc2ccc3c(c2)OCO3)c1Br` [N-(4-bromo-3-methyl-5-isoxazolyl)-2-{[3,4-(methylenedioxy)phenoxy]methyl}thiophene-3-sulfonamide], the half-maximal inhibitory concentration (IC50) stood at 6610 nM.
`Cc1cc(C)c(NC(=O)c2sccc2S(=O)(=O)Nc2onc(C)c2Cl)c(C(N)=O)c1` [N-(4-chloro-3-methyl-5-isoxazolyl)-2-(2-carbamoyl-4,6-dimethylphenylaminocarbonyl)thiophene-3-sulfonamide] had a concentration for half-maximal inhibition (IC50) of 11900 nM.
The same measure, in the same setting: for `Cc1ccc(OC(=O)c2sccc2S(=O)(=O)Nc2onc(C)c2Br)cc1` [N-(4-bromo-3-methyl-5-isoxazolyl)-2-[(4-methylphenoxy)carbonyl]thiophene-3-sulfonamide] the value was 9700 nM.
Regarding `Cc1noc(NS(=O)(=O)c2ccsc2C(=O)Oc2ccc3c(c2)OCO3)c1C` [N-(3,4-dimethyl-5-isoxazolyl)-2-[3,4-(methylenedioxy)phenoxycarbonyl]thiophene-3-sulfonamide], the IC50 was more than 50000 nM.
`Cc1noc(NS(=O)(=O)c2ccsc2C(=O)c2ccc3c(c2)OCO3)c1Br` [N-(4-bromo-3-methyl-5-isoxazolyl)-2-[(3,4-methylenedioxy)benzoyl]thiophene-3-sulfonamide] gave an IC50 of 15000 nM.
Compound `Cc1cc(C)c(CNC(=O)c2sccc2S(=O)(=O)Nc2onc(C)c2Cl)c(C)c1` [N-(4-chloro-3-methyl-5-isoxazolyl)-2-(2,4,6-trimethylbenzylaminocarbonyl)thiophene-3-sulfonamide] showed an IC50 of 69200 nM. Against the preceding compound, the IC50 is about 4.6-fold higher.
